The text below walks through data of patent publication US20250082752A1, “COMPOUNDS, TARGETS, AND METHODS FOR MODULATING LYTIC GRANULE CONVERGENCE IN CYTOTOXIC CELLS TO PROMOTE BYSTANDER KILLING IN CELLULAR THERAPIES” (THE TRUSTEES OF COLUMBIA UNIVERSITY IN THE CITY OF NEW YORK, priority 2022, published 2025).

Holding throughout (assay type): cell-based
For assay [1], the system named is YTS cells. Put plainly: Number of MTOC (alpha-tubulin hyper densities) in YTS cells treated with PLK4 inhibitors. To be noted: 5 days, Centrinone 5 nM or CFI400495 50 nM. The procedure:
(§1) Centrinone and CFI400495 are high affinity and selective PLK4 inhibitors that induce depletion of the centrosome and cell cycle arrest. YTS cells were treated for 5 days with Centrinone 5 nM or CFI400495 50 nM. […] For this experiment, 5×10^5 cells/ml YTS cells were incubated during 5 days Centrinone 5 nM or CFI400495 50 nM, every 24 hours the media were replaced with fresh media containing similar amounts of the drug. On day 5, cells were assessed by microscopy for gamma-tubulin or alpha-tubulin.

Assay [2] has as its system YTS cells. Put plainly: CD107a degranulation of treated YTS cells after conjugation with 721.221 target cells. To be noted: 5 days, Centrinone 5 nM or CFI400495 50 nM. As for the experimental part:
CD107a (also known as LAMP-1) is the standard to measure the process of degranulation. The more CD107a is expressed on the surface of the cell after stimulation, the more granules have been released. This is limited to the immunological synapse, in part secondary to the convergence process. CD107a upregulation is measured via flow cytometry after PMA/lonomycin activation and can be measured following target cell conjugation. […] The latter requires synapse formation and engagement of receptors for downstream activation signaling. Differences in results between these two approaches (target cell conjugation versus PMA/lonomycin) map the candidate's impact to early (synapse formation and signaling) or late (mechanics of) degranulation.
as §1

Assay [3] has as its system YTS cells. As to the kind of experiment: Confocal microscopy of granule dispersion in YTS cells after Centrinone or CFI400495. The settings on record: YTS cells after treatment with Centrinone or CFI400495. The procedure: as §1

Take `COc1ccc2c(c1)[C@]1(C[C@H]1c1ccc3c(/C=C/c4ccc(CN5C[C@@H](C)O[C@@H](C)C5)cc4)n[nH]c3c1)C(=O)N2.O=C(O)/C=C/C(=O)O` [CFI400495, Spiro[cyclopropane-1,3′-[3H]indol]-2′(1′H)-one, 2-[3-[(E)-2-[4-[[(2R,6S)-2,6-dimethyl-4-morpholinyl]methyl]phenyl]ethenyl]-1H-indazol-6-yl]-5′-methoxy-, (1R,2S)-, (2E)-2-butenedioate (1:1)]: the “number of MTOC (alpha Tubulin hyper densities)” value with YTS cells [1] is listed as “increase number of mTOC”. Also, the “degranulation (CD107a expression)” value in the assay on YTS cells [2] is “increases degranulation”. Also, the “granule dispersion (confocal microscopy images)” value with YTS cells [3] is reported as “more disperse granules”.
